The text below walks through data of patent US20260176300A1, “N-ARYLPYRAZOLE NOD2 AGONISTS AS PROMOTERS OF IMMUNE CHECKPOINT INHIBITOR THERAPY” (THE SCRIPPS RESEARCH INSTITUTE, priority 2022, published 2026).

This series has as its target T1, NOD2 (Homo sapiens, UniProt Q9HC29).
T1 construct: host or cells: HEK-293T-derived HEK-Blue NF-kB/SEAP reporter cells
Nature of the series: NOD2-HEK-Blue NF-κB reporter cell activation assay (NOD2-expressing HEK-293T cells). It counts as cell-based. The note with it: for EC50: calculated, three-parameter dose-response nonlinear regression, read-out: pEC50 (μM), dose-dependent activation of NOD2-expressing HEK-293T cells (converted). In short, it runs like this:
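HEK-Blue NOD2 reporter cells in HEK-Blue detection medium were exposed to compounds for 8-10 h at 37° C. (or 16 h in complete DMEM, then QUANTI-Blue for 2-4 h). Secreted alkaline phosphatase read by absorbance at 630 nm; pEC50 from three-parameter dose-response nonlinear regression.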

T1 sequence (Q9HC29 whole entry): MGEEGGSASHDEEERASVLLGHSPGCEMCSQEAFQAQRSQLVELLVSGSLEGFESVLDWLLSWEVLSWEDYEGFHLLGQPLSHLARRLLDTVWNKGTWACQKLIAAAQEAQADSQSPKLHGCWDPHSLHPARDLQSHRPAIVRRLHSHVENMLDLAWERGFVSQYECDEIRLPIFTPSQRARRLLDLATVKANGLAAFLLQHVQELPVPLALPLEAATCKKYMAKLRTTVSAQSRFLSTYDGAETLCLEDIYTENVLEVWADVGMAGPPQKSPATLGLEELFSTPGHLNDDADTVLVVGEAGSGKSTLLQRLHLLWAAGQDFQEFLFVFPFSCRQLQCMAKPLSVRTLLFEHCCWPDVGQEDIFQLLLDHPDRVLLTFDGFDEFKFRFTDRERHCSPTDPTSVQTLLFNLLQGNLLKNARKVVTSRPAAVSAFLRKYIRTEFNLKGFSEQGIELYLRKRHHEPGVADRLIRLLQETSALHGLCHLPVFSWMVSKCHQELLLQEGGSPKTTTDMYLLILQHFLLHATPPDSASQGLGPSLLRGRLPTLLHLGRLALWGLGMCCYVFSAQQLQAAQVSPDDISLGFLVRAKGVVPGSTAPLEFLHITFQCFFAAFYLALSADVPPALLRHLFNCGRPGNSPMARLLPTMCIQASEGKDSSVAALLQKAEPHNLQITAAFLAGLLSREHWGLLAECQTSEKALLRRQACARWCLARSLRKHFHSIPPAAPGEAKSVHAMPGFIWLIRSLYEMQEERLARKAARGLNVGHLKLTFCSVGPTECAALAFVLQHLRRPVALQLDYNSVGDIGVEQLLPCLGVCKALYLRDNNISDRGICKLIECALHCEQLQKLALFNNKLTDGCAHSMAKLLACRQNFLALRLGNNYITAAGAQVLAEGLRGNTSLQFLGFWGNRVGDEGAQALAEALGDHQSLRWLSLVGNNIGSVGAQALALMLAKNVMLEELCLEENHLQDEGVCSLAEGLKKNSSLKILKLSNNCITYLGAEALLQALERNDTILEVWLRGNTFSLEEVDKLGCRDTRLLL

As for `CC(=O)N[C@H]1C(O)O[C@H](CO)[C@@H](O)[C@@H]1O[C@H](C)C(=O)N[C@@H](C)C(=O)N[C@H](CCC(=O)O)C(N)=O` (stereo partly drawn) [MDP, (4R)-4-((2S)-2-((2R)-2-(((3R,4R,5S,6R)-3-acetamido-2,5-dihydroxy-6-(hydroxymethyl)tetrahydro-2H-pyran-4-yl)oxy)propanamido)propanamido)-5-amino-5-oxopentanoic acid, reference compound], the EC50 was 0.126 µM.

In the case of `CCOC(=O)CC[C@@H](NC(=O)[C@@H](NC(=O)c1c(C)nn(-c2cc[nH]c(=O)c2)c1C)C(C)C)C(=O)OCC` [TT030, Diethyl (3,5-dimethyl-1-(2-oxo-1,2-dihydropyridin-4-yl)-1H-pyrazole-4-carbonyl)-L-valyl-D-glutamate], the EC50 was 0.251 µM. Under “calculated pEC50 vs. clogP, FIG. 2G”, the “lipophilic ligand efficiency (LLE)” value was 6.81.
